Results on 12 compounds are retold here after PMC12381739, “Druglike Molecular Degraders of the Oncogenic RNA-Binding Protein HuR” (JACS Au, 2025).

Molecules are shown by their SMILES.

One assay deals with T1, HuR RRM1/2 (Homo sapiens, UniProt Q15717).
T1 construct: 20 nM of the 5′-FAM RNA probe and 500 nM of HuR RRM1/2
In words: Fluorescence polarization (FP) displacement assay, 5′ FAM-labeled RNA probe from HuR. Particulars: displacement of 5′-FAM RNA probe UAUUUAUUUA (20 nM) from 500 nM HuR RRM1/2; read-out: Binding affinity towards HuR in FP assay (Kd). The procedure:
Following the synthesis, our initial aim was to ensure that the new derivatives retained their affinity for HuR’s RNA-binding pocket. Thus, a binding evaluation assay was conducted. As previously reported, the RNA-binding pocket of HuR specifically recognizes the UTR sequences of mRNAs, with […] identified as a common binding motif. To evaluate the binding of each degrader, we conducted a fluorescence-based assay utilizing a 5-carboxyfluorescein (5′ FAM)-labeled reporter. This fluorescence polarization (FP) assay is based on the displacement of the 5′ FAM-labeled mRNA from HuR’s RNA-binding pocket, which provides insight into both the binding affinity of the degrader and its capacity to disrupt the HuR-mRNA interaction, thereby serving as a means of validating target engagement. When the 5′ FAM-RNA probe is bound to HuR, it forms a binary complex, resulting in slower rotational movement and a consequently high FP signal. However, when either molecule displaces the 5′ FAM-labeled RNA, the probe is released into the solution, where it undergoes rapid rotation, leading to a significant reduction in the FP signal (Figure S3). This decrease in FP serves as a quantitative measure of the degrader’s ability to compete with mRNA for HuR binding. […] As mentioned above, we synthesized a series of HuR ligand derivatives featuring indole and benzothiophene cores, along with ester and carboxylic acid functional groups.
As previously reported, the sequence of the fluorescently labeled (5′-FAM) RNA probe is […]. The assays were performed in PBS buffer (20 mM sodium phosphate, 150 mM NaCl, 1 mM dithiothreitol, 0.05% PLURONIC-127, 15% DMSO) at 293 K. Fluorescence was measured using the Synergy H1 Hybrid Multi-Mode Microplate Reader (Biotek, Agilent) with excitation and emission wavelengths set to 485 and 528 nm, respectively. Each well of a 384-well plate contained 20 nM of the 5′-FAM RNA probe and 500 nM of HuR RRM1/2. Compounds were tested at eight concentrations (0.1 nM–100 μM), with compound 10 serving as a positive control and PBS as the negative control. The protein-mRNA mixture was incubated for 1.5 h to allow for binding interactions. After this incubation, the compounds were added, and the mixture was incubated for an additional hour. The FP emission of the resulting HuR-compound complex was then recorded. The percent inhibition of binding was calculated by comparing the FP values of experimental conditions to the PBS control. The FP value corresponding to the HuR-RNA complex in the presence of DMSO was used as the 100% complexation reference, while the FP value of the labeled RNA alone was set as 0% complexation. The dissociation constant (K d) for the compound-HuR binding interaction was determined by fitting the dose–response curve to specific binding models using Prism 10.2.2. All experiments were performed in triplicate.

For a further assay, the target named is T2, GFP-HuR (Homo sapiens, UniProt Q15717).
T2 construct: host or cells: HEK-293
T2 sequence (Q15717 whole entry): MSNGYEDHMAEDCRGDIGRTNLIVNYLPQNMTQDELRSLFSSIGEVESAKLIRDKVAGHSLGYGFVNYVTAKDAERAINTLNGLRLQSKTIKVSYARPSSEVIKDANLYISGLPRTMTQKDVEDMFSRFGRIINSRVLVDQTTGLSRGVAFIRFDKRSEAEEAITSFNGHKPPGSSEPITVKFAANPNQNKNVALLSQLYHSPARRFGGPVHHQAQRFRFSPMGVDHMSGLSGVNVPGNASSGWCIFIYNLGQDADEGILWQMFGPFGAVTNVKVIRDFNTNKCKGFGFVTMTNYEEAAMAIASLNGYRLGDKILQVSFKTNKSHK
Description: GFP-HuR reporter assay. Particulars: HEK 293 cells, 10 μM, 24 h. Format: cell-based.

A further assay has as its target HuR (Homo sapiens, UniProt Q15717). In words: HuR protein expression by western blot in MCF-7 cells. Format: cell-based. Details: endogenous in cells; host or cells: MCF-7. An excerpt: Michigan Cancer Foundation-7 (MCF-7) cells were chosen due to their documented overexpression of HuR, which has been linked to cancer pathogenicity in this specific cell line. , Consequently, reducing HuR expression to physiologically normal levels is considered a potential strategy for novel anticancer therapies targeting breast cancers associated with HuR overexpression.
Total protein was extracted using RIPA cell lysis buffer (BioPrep) containing a protease inhibitor, and protein concentration was measured using the BCA protein assay (Sigma-Aldrich) according to the manufacturer’s protocol. Approximately 30 μg of total protein were resolved on a 12% SDS-acrylamide gel and transferred to a PVDF membrane (Immobilon FL transfer membrane; Merck). The membrane was washed with 1× Tris-buffered saline (TBS) containing 0.1% (v/v) Tween-20 (TBST; Tris-base, pH 7.6, NaCl, and Tween-20) and blocked in 1× TBST containing 5% (w/v) BSA for 2 h at room temperature. The membrane was then incubated overnight at 4 °C with primary antibodies: a 1:1000 dilution of rabbit anti-ELAVL1/HuR (Cell Signaling Technology, #12582), a 1:1000 dilution of mouse anti-Bcl2 (Cell Signaling Technology, #15071), or a 1:10,000 dilution of rabbit anti-Vinculin (Cell Signaling Technology, #13901) in 1× TBST containing 5% (w/v) BSA. Following primary antibody incubation, the membrane was washed with 1× TBST and incubated with a 1:10,000 dilution of the appropriate horseradish-peroxidase-conjugated secondary antibody (antirabbit IgG: Cell Signaling, #7074 or antimouse IgG: Cell Signaling, #7076) at room temperature for 2 h. After washing three times with 1X TBST (10 min per wash), protein bands were visualized using Clear Band ECL Substrate (Gene Bio-Application) on the Azure C300 Imaging System. The fold change in the expression of the target proteins (HuR or Bcl2) was calculated by normalizing the band intensity to the Vinculin band intensity using ImageJ.

Another assay deals with MDA-MB-231 spheroids. Description: 3D spheroid growth model, MDA-MB-231. Format: cell-based, human. The procedure:
(§1) MDA-MB-231 and MCF-7 breast cancer cells were cultured in standard tissue culture plates using RPMI or DMEM media supplemented with 10% fetal bovine serum (FBS) and 1% penicillin–streptomycin until they reached approximately 80% confluency. Cells were washed with PBS and dissociated using 0.25% Trypsin-EDTA, followed by neutralization with complete medium. Viability was assessed via trypan blue exclusion, ensuring >90% viable cells. For spheroid formation, cells were seeded into ultralow attachment 96-well plates at a density of 5000 cells/well in 200 μL of complete medium. Plates were centrifuged at 1000 rpm for 5 min to promote aggregation and incubated at 37 °C in a humidified 5% CO2 atmosphere. Spheroid formation was monitored daily using an inverted microscope. Media exchanges or treatment additions were performed by carefully aspirating 100 μL of medium from each well and replacing it with an equal volume of fresh or treatment-containing medium. Differences in spheroid characteristics between the two cell lines were noted: MCF-7 cells, being epithelial and E-cadherin positive, formed compact, uniform spheroids at lower seeding densities (1000–5000 cells/well) over 3–5 days, whereas MDA-MB-231 cells, which lack E-cadherin, required higher densities (5000–10,000 cells/well) and formed looser aggregates typically within 2–4 days. All experiments were performed in duplicates. Surface area was calculated using Image View’s multipoint connection function.

A further assay deals with Bcl2 and FOXQ1 mRNA. Description: mRNA RT-qPCR of Bcl2 and FOXQ1 in MCF-7 cells. It counts as cell-based, human. To be noted: MCF-7, any of the concentrations evaluated. As for the experimental part: MCF-7 cells were seeded into 12-well plates (∼150,000 cells per well) at 60–70% confluency incubated for 12 h. The cells were then treated with different synthesized compounds at the indicated concentrations or with vehicle control for 24 and 48 h. After treatment, total RNA was extracted using the QuickRNA Miniprep Kit (Zymo Research) according to the manufacturer’s protocol, including DNase I treatment. Reverse transcription was performed on 1 μg of total RNA using the qScript cDNA Synthesis Kit (Quantabio) following the manufacturer’s instructions. Approximately 30 ng of cDNA were used for each qPCR reaction, which was carried out using the Luna Universal qPCR Master Mix (New England BioLabs, cat# E3010G) on a CFX Opus 384 Real-Time PCR System. Relative expression levels of Bcl-2 and FOXQ1 were calculated by normalizing to GAPDH expression using the ΔΔCt method.

The test system of a further assay is MCF-7 spheroids. In words: 3D spheroid growth model, MCF-7. Format: cell-based, human. The procedure:
as §1

T1 sequence (Q15717 18-186 limits assumed): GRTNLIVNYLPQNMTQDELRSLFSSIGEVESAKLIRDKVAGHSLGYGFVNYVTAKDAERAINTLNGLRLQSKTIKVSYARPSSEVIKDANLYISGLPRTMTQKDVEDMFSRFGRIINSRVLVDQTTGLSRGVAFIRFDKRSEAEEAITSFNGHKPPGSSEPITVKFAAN
Chain of HuR (Q15717 whole entry): as the sequence (Q15717 whole entry) above
Description for GFP-HuR: To assess the effects of the HuR degraders in cells in a high-throughput fashion, a GFP-HuR reporter assay was utilized. In this assay, HuR was fused with green fluorescent protein (GFP), facilitating the monitoring of its expression and stability through fluorescence intensity (Figure A). A decrease in the GFP signal indicates HuR degradation.
HEK-293 cells were cultured in 100 mm diameter plates to approximately 70% confluency and transfected with 15 μg of GFP-HuR (ELAVL1) reporter plasmid (Addgene #121162) in a 1:2 ratio with the PEI transfection reagent (Med Chem Express, HY-K2014) at a concentration of 1 mg/mL, following the manufacturer’s recommended protocol. After 6 h of transfection, the cells were reseeded into 96-well plates. […] Fluorescence measurements were taken using the Synergy H1 Hybrid Multi-Mode Microplate Reader (Biotek, Agilent) with excitation and emission wavelengths set to 479 and 520 nm, respectively, according to the manufacturer’s instructions. All experiments were performed in triplicate.

As for `O=C(/C=C/c1ccc(C(F)(F)F)cc1)Nc1ccc2sc(C(=O)O)cc2c1` [MG-HuR5], at HuR RRM1/2, the Kd came to 818 nM. In addition, the GFP-HuR fluorescence intensity entry at GFP-HuR is “significant reduction in fluorescence intensity”.

Regarding `CCOC(=O)c1cc2cc(NC(=O)/C=C/C(=O)c3ccc(OC)cc3)ccc2s1` [MG-HuR1], on HuR RRM1/2, the Kd amounted to 1080 nM.

Turning to `CCOC(=O)c1cc2cc(NC(=O)/C=C/c3ccc(C(F)(F)F)cc3)ccc2[nH]1` [MG-HuR3], on HuR RRM1/2, the Kd is 9.3 nM.

For `CCOC(=O)c1cc2cc(NC(=O)/C=C/c3ccc(C(F)(F)F)cc3)ccc2s1` [MG-HuR4], the Kd on HuR RRM1/2 came to 1490 nM.

As for `CCOC(=O)c1cc2cc(NC(=O)C3CCN(c4cccc5c4C(=O)N(C4CCC(=O)NC4=O)C5=O)CC3)ccc2s1` (centres unmarked) [PRO-HuR5], the Kd on HuR RRM1/2 worked out at 6.5 nM.

With `CCOC(=O)c1cc2cc(-n3cc(CNc4cccc5c4C(=O)N(C4CCC(=O)NC4=O)C5=O)nn3)ccc2s1` (centres unmarked) [PRO-HuR4], the “time-dependent response of HuR degradation” value at HuR (MCF-7, 10 μM) is recorded as “did not”. Moreover, at HuR (MCF-7, 10 μM, 24 h), the HuR degradation ability result is “higher degradation efficiency”. Moreover, at HuR RRM1/2, the Kd is 10.6 nM.

Turning to `CCOC(=O)c1cc2cc(N)ccc2[nH]1` [Binder 1], the “day at which a decrease in spheroid surface area was first observed” value in the assay with MDA-MB-231 spheroids worked out at 9 days; with MCF-7 spheroids, 14 days. The spheroid growth result with MDA-MB-231 spheroids (10 nM) and in the assay on MCF-7 spheroids (10 nM) was “no significant impact on spheroid growth” in each case. Also, on HuR (MCF-7, Binder 1 1 µM 24 h, Binder 2 10 µM 48 h (Figure S8)), the “HuR expression after treatment with HuR ligands alone” value is “No significant decrease in HuR expression”. In addition, the “RNA levels of Bcl2 and FOXQ1 with HuR ligands” value with Bcl2 and FOXQ1 mRNA is on record as “no effect was observed”.

Regarding `CCOC(=O)c1cc2cc(-n3cc(-c4ccc(C(=O)NCCNc5cccc6c5C(=O)N(C5CCC(=O)NC5=O)C6=O)cc4)nn3)ccc2s1` (centres unmarked) [PRO-HuR7], the Kd on HuR RRM1/2 was determined as 45.8 nM.

For `CCOC(=O)c1cc2cc(NC(=O)CCC(=O)N3CCN(c4cccc5c4C(=O)N(C4CCC(=O)NC4=O)C5=O)CC3)ccc2s1` (centres unmarked) [PRO-HuR6], the Kd on HuR RRM1/2 is 9390 nM.

As for `CCOC(=O)c1cc2cc(NC(=O)C3CN(c4cccc5c4C(=O)N(C4CCC(=O)NC4=O)C5=O)C3)ccc2s1` (centres unmarked) [PRO-HuR8], the dissociation constant Kd on HuR RRM1/2 was 6430 nM.

On to `O=C1CCC(N2C(=O)c3cccc(NCCc4cn(CCCC(=O)Nc5ccc6[nH]c(C(=O)O)cc6c5)nn4)c3C2=O)C(=O)N1` (centres unmarked) [PRO-HuR2], for which the equilibrium dissociation constant (Kd) at HuR RRM1/2 was 10.1 nM.

Consider `O=C1CCC(N2C(=O)c3cccc(NCc4cn(-c5ccc6[nH]c(C(=O)O)cc6c5)nn4)c3C2=O)C(=O)N1` (centres unmarked) [PRO-HuR1], for which, at HuR RRM1/2, the Kd came out at 9.5 nM.
